Assays:
Assay type in all cases: cell-based
[1] = test system: CLL cells; test: sensitivity of CLL cells from extended-lymphocytosis or ibrutinib-resistant samples (FIG. 7); conditions: samples with extended lymphocytosis or that develop resistance to Ibrutinib
Method: (§1) FIG. 1A illustrates a nanostring miRNA expression data table. […] FIG. 1B illustrates HDAC1 knockdown in CLL cells. FIG. 2A illustrates a human BTK mRNA map. […] FIG. 2C illustrates a miRNA map. HDAC inhibition is associated with the accumulation of activating chromatin modifications (H3K4me3) that promote gene re-expression. FIG. 3A illustrates a miRNA expression data table. FIG. 3B illustrates miRNA expression in the presence or absence of 0.4 μM Abexinostat in unmutated 17p CLL. […] FIG. 5 illustrates an annexin apoptosis assay on CLL cells. […] FIG. 6 illustrates survival after leukemia in a TCL-1 mouse model. […] FIG. 9 illustrates an annexin apoptosis assay on CLL cells. […] FIG. 10 illustrates the expression of phosphorylated BTK Y223 in the presence of Abexinostat in AML cells.

[2] = test system: Btk-directed miRNA; test: miRNA expression in unmutated 17p CLL; conditions: 0.4 μM Abexinostat, unmutated 17p (high risk) CLL, FIG. 3B
Method: FIG. 3A illustrates a miRNA expression data table. FIG. 3B illustrates miRNA expression in the presence or absence of 0.4 μM Abexinostat in unmutated 17p CLL.
as §1

[3] = test system: CLL cells; test: annexin apoptosis assay on CLL cells
Excerpt: FIG. 5 illustrates an annexin apoptosis assay on CLL cells.
FIG. 9 illustrates an annexin apoptosis assay on CLL cells.
as §1

CN(C)Cc1c(C(=O)NCCOc2ccc(C(=O)NO)cc2)oc2ccccc12 [Abexinostat, 3-[(Dimethylamino)methyl]-N-{2-[4-(hydroxycarbamoyl)phenoxy]ethyl}-1-benzofuran-2-carboxamide]
sensitivity of CLL cells to Abexinostat [1]: retaining sensitivity | effect on miRNA expression [2]: de-repression of Btk-directed miRNA | killing of CLL cells (annexin apoptosis), combination effect ([3]; Abexinostat in combination with ibrutinib, FIG. 5): synergized with ibrutinib to kill CLL cells | sensitivity of CLL cells to Abexinostat (annexin apoptosis) ([3]; samples with extended lymphocytosis or that develop resistance to Ibrutinib, FIG. 9): retain sensitivity

Reference: US20150352116A1, “HDAC INHIBITOR AND BTK INHIBITOR COMBINATIONS” (Pharmacyclics LLC, priority 2014, published 2015)
